Experiments:
[1] = target: T1, Menin/Histone-lysine N-methyltransferase MLL (Homo sapiens, UniProt O00255); test: Inhibition of menin-MLL1 (unknown origin) protein-protein interaction by HTRF assay
[2] = tested on: MV4-11; test: Antiproliferative activity against human MV411 cell spheroids; type: functional, cell-based
[3] = target: T1, Menin/Histone-lysine N-methyltransferase MLL; test: Inhibition of menin-MLL1 (unknown origin) protein-protein interaction by fluorescence polarization assay
[4] = tested on: MOLM-14; test: Antiproliferative activity against human MOLM14 cell spheroids; type: functional, cell-based

T1 sequence (O00255 whole entry): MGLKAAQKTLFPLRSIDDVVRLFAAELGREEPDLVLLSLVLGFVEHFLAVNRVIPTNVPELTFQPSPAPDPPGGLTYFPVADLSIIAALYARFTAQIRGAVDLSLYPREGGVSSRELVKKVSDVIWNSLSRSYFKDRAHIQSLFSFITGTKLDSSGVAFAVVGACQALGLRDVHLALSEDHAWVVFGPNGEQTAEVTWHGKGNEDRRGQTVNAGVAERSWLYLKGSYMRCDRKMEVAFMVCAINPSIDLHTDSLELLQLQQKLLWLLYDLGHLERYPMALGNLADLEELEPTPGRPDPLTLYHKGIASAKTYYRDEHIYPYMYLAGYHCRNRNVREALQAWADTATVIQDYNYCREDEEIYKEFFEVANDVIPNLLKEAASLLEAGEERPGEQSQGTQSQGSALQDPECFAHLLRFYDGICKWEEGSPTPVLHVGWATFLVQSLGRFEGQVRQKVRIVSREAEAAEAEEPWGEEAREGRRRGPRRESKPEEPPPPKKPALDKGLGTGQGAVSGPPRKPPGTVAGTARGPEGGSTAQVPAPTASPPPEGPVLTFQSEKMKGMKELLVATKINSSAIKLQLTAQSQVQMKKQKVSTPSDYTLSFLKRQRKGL
T1 sequence (Q03164 1-2718 partner limits assumed): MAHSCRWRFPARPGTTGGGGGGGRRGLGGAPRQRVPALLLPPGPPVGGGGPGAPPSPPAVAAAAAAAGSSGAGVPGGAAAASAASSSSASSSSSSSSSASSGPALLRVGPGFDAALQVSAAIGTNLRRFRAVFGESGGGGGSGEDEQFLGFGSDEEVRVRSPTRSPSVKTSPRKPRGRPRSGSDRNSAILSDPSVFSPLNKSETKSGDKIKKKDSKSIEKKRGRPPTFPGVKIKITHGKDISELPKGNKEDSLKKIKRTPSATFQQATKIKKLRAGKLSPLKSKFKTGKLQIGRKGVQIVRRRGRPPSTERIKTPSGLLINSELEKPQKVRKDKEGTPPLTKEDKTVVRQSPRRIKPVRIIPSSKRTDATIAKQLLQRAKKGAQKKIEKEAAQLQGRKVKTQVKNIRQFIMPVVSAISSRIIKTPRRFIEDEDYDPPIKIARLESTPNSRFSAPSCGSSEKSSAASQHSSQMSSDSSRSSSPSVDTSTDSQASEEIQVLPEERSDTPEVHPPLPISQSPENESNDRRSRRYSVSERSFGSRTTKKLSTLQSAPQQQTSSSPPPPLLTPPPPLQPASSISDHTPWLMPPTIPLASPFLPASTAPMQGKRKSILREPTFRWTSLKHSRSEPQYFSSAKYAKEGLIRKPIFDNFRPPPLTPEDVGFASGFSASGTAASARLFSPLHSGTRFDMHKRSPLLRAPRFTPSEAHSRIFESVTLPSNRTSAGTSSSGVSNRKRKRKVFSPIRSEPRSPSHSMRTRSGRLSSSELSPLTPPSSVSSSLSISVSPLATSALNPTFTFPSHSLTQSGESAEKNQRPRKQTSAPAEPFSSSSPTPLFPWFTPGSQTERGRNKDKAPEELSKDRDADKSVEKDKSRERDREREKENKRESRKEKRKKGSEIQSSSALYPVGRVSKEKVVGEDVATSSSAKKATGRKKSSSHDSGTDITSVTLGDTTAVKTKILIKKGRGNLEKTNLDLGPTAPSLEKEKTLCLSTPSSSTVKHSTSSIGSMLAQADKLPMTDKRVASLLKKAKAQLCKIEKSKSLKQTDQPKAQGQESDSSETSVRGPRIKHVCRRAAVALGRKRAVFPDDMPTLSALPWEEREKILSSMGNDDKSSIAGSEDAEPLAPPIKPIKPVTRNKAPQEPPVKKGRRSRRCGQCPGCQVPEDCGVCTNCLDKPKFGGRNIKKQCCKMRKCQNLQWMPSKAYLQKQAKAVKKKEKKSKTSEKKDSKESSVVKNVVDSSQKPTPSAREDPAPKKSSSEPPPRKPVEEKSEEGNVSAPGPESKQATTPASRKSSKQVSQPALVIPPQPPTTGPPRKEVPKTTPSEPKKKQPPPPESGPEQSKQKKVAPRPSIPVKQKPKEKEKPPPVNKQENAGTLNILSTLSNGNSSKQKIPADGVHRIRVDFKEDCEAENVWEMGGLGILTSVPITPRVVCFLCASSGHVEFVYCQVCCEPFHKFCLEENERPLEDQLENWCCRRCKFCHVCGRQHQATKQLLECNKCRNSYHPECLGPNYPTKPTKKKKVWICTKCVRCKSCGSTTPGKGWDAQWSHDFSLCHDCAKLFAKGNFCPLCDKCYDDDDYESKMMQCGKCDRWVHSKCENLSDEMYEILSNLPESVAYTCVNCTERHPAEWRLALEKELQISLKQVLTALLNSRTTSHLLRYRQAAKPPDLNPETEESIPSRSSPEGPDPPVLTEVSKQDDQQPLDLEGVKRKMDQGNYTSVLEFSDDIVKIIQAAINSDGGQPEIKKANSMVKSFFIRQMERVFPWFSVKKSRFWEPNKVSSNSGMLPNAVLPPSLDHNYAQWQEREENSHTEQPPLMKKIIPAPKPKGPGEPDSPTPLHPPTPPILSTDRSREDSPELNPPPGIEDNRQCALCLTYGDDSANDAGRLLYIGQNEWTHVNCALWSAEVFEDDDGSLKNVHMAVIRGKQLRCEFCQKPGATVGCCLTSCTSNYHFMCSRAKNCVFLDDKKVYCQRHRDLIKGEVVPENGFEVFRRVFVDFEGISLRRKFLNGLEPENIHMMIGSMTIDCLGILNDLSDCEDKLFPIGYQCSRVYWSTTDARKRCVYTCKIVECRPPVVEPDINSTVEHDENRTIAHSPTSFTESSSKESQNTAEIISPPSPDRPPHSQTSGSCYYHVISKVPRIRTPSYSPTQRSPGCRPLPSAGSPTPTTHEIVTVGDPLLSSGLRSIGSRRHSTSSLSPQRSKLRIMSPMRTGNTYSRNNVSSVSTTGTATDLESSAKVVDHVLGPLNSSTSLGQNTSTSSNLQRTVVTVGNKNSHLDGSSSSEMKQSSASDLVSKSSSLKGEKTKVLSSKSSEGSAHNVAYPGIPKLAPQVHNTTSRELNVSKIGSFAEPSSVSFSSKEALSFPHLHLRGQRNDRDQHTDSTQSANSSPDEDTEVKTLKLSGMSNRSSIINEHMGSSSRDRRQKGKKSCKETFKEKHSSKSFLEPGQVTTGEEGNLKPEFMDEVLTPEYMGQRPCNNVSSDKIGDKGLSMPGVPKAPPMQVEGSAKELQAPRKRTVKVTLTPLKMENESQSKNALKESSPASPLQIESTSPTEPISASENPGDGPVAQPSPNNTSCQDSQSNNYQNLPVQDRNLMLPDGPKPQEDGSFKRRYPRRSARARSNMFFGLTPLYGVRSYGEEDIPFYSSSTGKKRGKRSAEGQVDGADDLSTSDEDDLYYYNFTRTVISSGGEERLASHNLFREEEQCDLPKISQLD
T1 sequence (Q03164 2719-3969 partner limits assumed): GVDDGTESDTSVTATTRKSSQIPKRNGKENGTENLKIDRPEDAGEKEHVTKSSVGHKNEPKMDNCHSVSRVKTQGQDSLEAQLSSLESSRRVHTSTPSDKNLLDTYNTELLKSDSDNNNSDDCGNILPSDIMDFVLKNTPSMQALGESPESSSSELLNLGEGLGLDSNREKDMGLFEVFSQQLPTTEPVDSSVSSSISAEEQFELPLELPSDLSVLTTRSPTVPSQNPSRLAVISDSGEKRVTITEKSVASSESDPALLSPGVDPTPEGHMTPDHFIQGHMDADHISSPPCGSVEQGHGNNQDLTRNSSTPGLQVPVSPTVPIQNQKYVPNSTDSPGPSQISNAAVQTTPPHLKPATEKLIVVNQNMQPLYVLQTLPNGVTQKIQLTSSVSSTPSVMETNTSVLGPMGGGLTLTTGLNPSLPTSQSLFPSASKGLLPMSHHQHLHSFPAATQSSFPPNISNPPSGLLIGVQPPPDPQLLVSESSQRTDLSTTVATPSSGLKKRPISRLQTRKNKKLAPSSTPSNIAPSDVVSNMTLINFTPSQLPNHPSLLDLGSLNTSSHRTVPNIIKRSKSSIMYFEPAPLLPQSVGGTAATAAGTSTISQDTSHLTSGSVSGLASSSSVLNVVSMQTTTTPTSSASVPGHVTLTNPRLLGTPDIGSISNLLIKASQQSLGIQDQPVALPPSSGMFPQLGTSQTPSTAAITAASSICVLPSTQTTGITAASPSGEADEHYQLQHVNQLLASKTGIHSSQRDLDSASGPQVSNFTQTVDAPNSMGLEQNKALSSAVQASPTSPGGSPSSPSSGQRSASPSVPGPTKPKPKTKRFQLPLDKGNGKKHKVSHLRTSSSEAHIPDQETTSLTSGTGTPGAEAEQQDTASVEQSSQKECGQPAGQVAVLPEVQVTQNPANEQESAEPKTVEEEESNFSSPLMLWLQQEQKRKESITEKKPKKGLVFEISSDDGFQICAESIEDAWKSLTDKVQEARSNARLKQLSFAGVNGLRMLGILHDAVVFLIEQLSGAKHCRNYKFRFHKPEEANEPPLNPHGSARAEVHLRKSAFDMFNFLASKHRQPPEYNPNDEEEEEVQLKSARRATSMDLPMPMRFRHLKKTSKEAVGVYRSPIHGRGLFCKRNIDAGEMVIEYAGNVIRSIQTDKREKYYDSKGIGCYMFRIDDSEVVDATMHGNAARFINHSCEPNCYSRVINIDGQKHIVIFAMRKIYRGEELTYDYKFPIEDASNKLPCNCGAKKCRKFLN

`FC(F)(F)Cc1cc2c(N3CCC4(CN(Cc5ccccc5)C4)C3)ncnc2s1` showed an IC50 [1] of 144 nM, an IC50 [2] of 3700 nM and an IC50 [3] of 56 nM. The IC50 [4] was 4600 nM.
`CC(C)[C@H](C1CNC1)N1CC2(CCN(c3ncnc4sc(CC(F)(F)F)cc34)C2)C1` showed an IC50 [1] of 8 nM, an IC50 [2] of 80 nM and an IC50 [3] of 21 nM. For the same molecule, the IC50 [4] was 860 nM.
With `Cn1cc2c(n1)CCCC2N1CC2(CCN(c3ncnc4sc(CC(F)(F)F)cc34)C2)C1` (centres undefined) the IC50 [1] was 385 nM, the IC50 [2] was 2100 nM and the IC50 [3] was 120 nM. The IC50 [4] was over 15000 nM.
`CC(C)[C@@H](C1CNC1)N1CC2(CCN(c3ncnc4sc(CC(F)(F)F)cc34)C2)C1` gave an IC50 [1] of 190 nM, an IC50 [2] of 3400 nM and an IC50 [3] of 110 nM. For the same molecule, the IC50 [4] was 10300 nM.
With `FC(F)(F)Cc1cc2c(N3CCCC4(CCN(Cc5ccccc5)C4)C3)ncnc2s1` (centres undefined) the IC50 [1] was 227 nM, the IC50 [2] was 3900 nM and the IC50 [3] was 140 nM. For the same molecule, the IC50 [4] was 7700 nM.
Molecule `O=C([C@@H]1CC2(CC2)CN1)N1CC2(CCN(c3ncnc4sc(CC(F)(F)F)cc34)C2)C1` has an IC50 [1] of 102 nM, an IC50 [2] of 2600 nM and an IC50 [3] of 92 nM. The IC50 [4] was 11300 nM.

Source: ChEMBL document CHEMBL4196228, “Potential Treatment of Acute Leukemia with Inhibitors of Menin/MLL Interaction” (ACS Med Chem Lett, 2018)
